Experimental data as given in patent publication US20080241077A1, “BENZOYLGUANIDINE SALT AND HYDRATES THEREOF” (priority 2001, published 2008).
Structures can show the parent of a compound that is named as a salt.

Key:
Format in all cases: physicochemical
[1] = Hygroscopicity of the active substance
[2] = Solubility in physiologically acceptable solvents
[3] = Stability of the active substance

hygroscopicity [1]: not hygroscopic
solubility [2]: dissolves readily
stability [3]: high degree of stability
Structure (SMILES): NC(N)=NC(=O)c1ccc(N2CCN(C(=O)c3ccc[nH]3)CC2)c(C(F)(F)F)c1 [formula 1, 4-[4-(2-pyrrolylcarbonyl)-1-piperazinyl]-3-trifluoromethylbenzoylguanidine hydrochloride]
